Reference: patent publication US20220305144A1, “RADIOLIGANDS FOR IMAGING THE ID01 ENZYME” (Bristol-Myers Squibb Company, priority 2016, published 2022)
Entries after “also recorded” stand apart in the source; their conditions may differ.

Key:
[1] = target: T1, IDO1 (Mus musculus, UniProt P28776); test: In-vivo PET imaging in M109 xenograft mice at baseline and after treatment with an IDO1 inhibitor (Example 7); conditions: 6, 60, 150 mg/kg PO once daily for 5 days
T1 construct: The M109 tumor model is generated from a murine lung carcinoma cell line and expresses high levels of IDO1; from tissue; host or cells: subcutaneous M109 (murine lung carcinoma) tumours in BALB/c mice, imaged in vivo
T1 sequence (P28776 whole entry): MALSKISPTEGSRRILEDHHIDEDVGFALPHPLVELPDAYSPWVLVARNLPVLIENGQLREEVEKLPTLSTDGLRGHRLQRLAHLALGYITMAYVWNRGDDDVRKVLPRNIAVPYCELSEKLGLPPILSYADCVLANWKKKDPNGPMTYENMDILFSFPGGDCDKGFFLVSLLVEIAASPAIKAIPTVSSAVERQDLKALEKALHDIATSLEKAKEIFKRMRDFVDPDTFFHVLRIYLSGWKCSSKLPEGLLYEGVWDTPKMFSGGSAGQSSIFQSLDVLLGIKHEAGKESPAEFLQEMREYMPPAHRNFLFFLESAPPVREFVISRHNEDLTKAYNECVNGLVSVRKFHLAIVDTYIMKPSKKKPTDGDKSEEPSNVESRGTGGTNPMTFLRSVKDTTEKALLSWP
Description: All mice underwent 2 separate PET scans. The first was a baseline PET scan before treatment began and the second was a post treatment scan with either the IDO1 inhibitor or vehicle. Treatment was administered PO once daily for 5 days with the last dose administered 2 hours prior to the post-treatment PET scan. […] There were no difference in tracer uptake at baseline in the M109 tumors between any of the groups.

[2] = target: T1, IDO1; test: In-vivo PET imaging in M109 xenograft mice after treatment with the unlabeled IDO1 inhibitor (Example 6); conditions: 6, 60, 150 mg/kg PO once daily for 4 or 5 days
Description: Dosing and treatment was established based on known pharmacological effect and treatment was administered PO, once daily, for 4 or 5 days. All animals were received a PET scan post-treatment with the last dose of (R)—N-(4-chlorophenyl)-2-((1S,4)-4-(6-fluoroquinolin-4-yl)cyclohexyl)propanamide or vehicle administered 2 hours before PET imaging. […] The exact injected dose was calculated by subtracting the decay corrected activity of the residual in the syringe after injection from the total measured dose in the syringe prior to injection. For PET imaging, the mice were anesthetized with isoflurane and placed into a custom animal holder with capacity for 4 animals. Body temperature was maintained with a heating pad and anesthesia was maintained with 1.5% isoflurane for the duration of the imaging PET imaging was performed on a dedicated microPET® F120™ scanner and a F220™ scanner (Siemens Preclinical Solutions, Knoxville, Tenn.). A 10 minute transmission scan was performed using a ^57Co source for attenuation correction of the final PET images and followed by a 10 min static emission scan. Either before or after PET imaging a CT scan (X-SPECT, Gamma Medica) or MRI scan (Bruker) was performed for anatomical orientation during image analysis. PET images were reconstructed using a maximum a posteriori (MAP) algorithm with attenuation correction using the collected transmission images. Image analysis was performed using the image analysis software AMIDE PET images were co-registered with their corresponding CT or MRI images and regions of interest (ROIs) were manually drawn around tumor boundaries and muscle using the CT or MRI images as the anatomical guidelines. The outcome measure percentage injected dose/g tissue (% ID/g) was obtained from the ROIs volume and the calculated injected activity decay corrected to the beginning of the emission scan.

[3] = target: T1, IDO1; test: Comparison of tracer uptake in high (M109) and low (CT26) IDO1 expressing tumor models (Example 8); format: in vivo; conditions: BALB/c mice given vehicle for 5 days, tracer i.v. 1 hour before PET, CT26 low IDO1 expression
Source text: In order to compare the ability to differentiate between differences in expression levels of IDO1 we imaged an additional mouse model carrying CT26 tumors. The CT26 tumor model is generated from a murine colorectal carcinoma cell line and expresses lower levels of IDO1 than the M109 model.

[4] = PET biodistribution in non-human primate (Example 9); format: in vivo; conditions: male cynomolgus monkey, 1.2 mCi i.v., 5 full body PET scans
Description: A male cynomolgus monkey (3.5 kg) was anesthetized via a cocktail of 0.02 mg/kg Atropine, and 5 mg/kg Telazol, 0.01 mg/kg Buprenorphine and maintained with 1-2% isoflurane for the duration of the study. Body temperature was maintained at ˜37° C. using an external circulating water bed to prevent hypothermia during imaging. The monkey was intubated and a saphenous vein catheter was inserted to allow for radiotracer injection. […] The axial field of view in the PET system is 7.6 cm. With this limitation, images were acquired over 7 distinct bed positions to cover the full body with an overlap of 1.5 cm between beds. Prior to emission imaging a 10 minute transmission image was acquired for each bed position for attenuation correction of the final PET images, immediately following collection of the final transmission image, the bed was returned to position 1 and the radiotracer was injected via the saphenous vein catheter concurrently with the start of the first emission scan. For emission, a total of 5 full body scans were acquired, using 5 min emission acquisitions for each bed position. Images were reconstructed using a MAP algorithm with attenuation correction. Bed positions were stitched together for a full body image using a stitching software tool developed in house and PET and MRI images were co-registered using AMIDE software. The final images were visually inspected to note areas of high tracer accumulation and evaluate biodistribution and background signal.

[5] = listed as 18F—(R)—N-(4-chlorophenyl)-2-((1S,4S)-4-(6-fluoroquinolin-4-yl)cyclohexyl)propan
[6] = listed as [^18F](R)—N-(4-chlorophenyl)-2-((1S,4S)-4-(6-fluoroquinolin-4-yl)cyclohexyl)prop

SMILES | Tracer uptake in muscle reference tissue, baseline vs post-treatment [1] | Tracer uptake in M109 tumors after treatment, compared to vehicle group and baseline ([1]; last dose 2 hours before post-treatment PET scan) | Tracer uptake (% ID/g) in M109 tumors compared to vehicle ([2]; last dose 2 hours before PET, [18F] tracer i.v. 1 hour before imaging) | Tracer uptake in muscle reference tissue ([2]; muscle used as reference region for non-specific binding) | Tracer uptake (% ID/g) in M109 tumors compared to CT26 tumors [3] | Areas of tracer accumulation (biodistribution) [4, 5] | Background signal in the rest of the body [4, 5] | Areas of tracer accumulation (biodistribution) [4, 6] | Background signal in the rest of the body [4, 6]
C[C@@H](C(=O)Nc1ccc(Cl)cc1)C1CCC(c2ccnc3ccc(F)cc23)CC1 (stereo partly drawn) [(R)—N-(4-chlorophenyl)-2-((1S,4S)-4-(6-fluoroquinolin-4-yl)cyclohexyl)propanamide] | unaffected by treatment | dose-dependent decrease in tracer uptake; also recorded: dose-dependent displacement of the tracer | dose-dependent decrease in tracer uptake; also recorded: dose-dependent displacement of the tracer | no effect on the tracer; also recorded: no effect on the uptake in muscle tissue |  |  |  |  | 
C[C@@H](C(=O)Nc1ccc(Cl)cc1)[C@H]1CC[C@@H](c2ccnc3ccc([18F])cc32)CC1 [Example 5, [^18F](R)—N-(4-chlorophenyl)-2-((1S, 4S)-4-(6-fluoroquinolin-4-yl)cyclohexyl)propanamide] |  |  |  |  | higher % ID/g was observed in M109 mouse xenograft tumors compared to % ID/g in CT26 mouse xenograft tumors; also recorded: increased in M109 tumors | accumulated in expected clearance organs such as liver and gallbladder | little to no background | accumulated in the liver and gallbladder | minimal
